Reference: US6399086B1, “Pharmaceutical preparations for the controlled release of beta-lactam antibiotics” (Yissum Research Development Company of the Hebrew …, priority 1997, dated 2002)

Tests used:
[1] = Stability of active agent in the dissolution medium; type: physicochemical; details: 37° C.
Description: Determination of Stability of active Agent in the Dissolution Medium
Following 1, 2, 4, 6, 8 and 24 hrs the absorption profile of the drug between 200 nm and 300 nm was determined and compared with the absorption profile of the solutions before storage.

Streptococci group A = details: cited from earlier work
Streptococci pneumoniae = details: cited from earlier work
Staphylococcus aureus = details: cited from earlier work
Haemophilus influenza = details: cited from earlier work
Enterococcus faecalis = details: cited from earlier work

CC1(C)S[C@@H]2[C@H](NC(=O)[C@H](N)c3ccc(O)cc3)C(=O)N2[C@H]1C(=O)O [Amoxicillin, amoxicillin trihydrate]
Stability in solution ([1]; pH=1.2, after 1hr): deterioration occurred | Stability in solution ([1]; pH=2, after 6 hrs): stable | Stability in solution ([1]; pH=6.8, after 24 hrs): stable | Stability in solution ([1]; pH=7.4, after 24 hrs): stable | MIC (Streptococci group A): 0.01 µg/mL | MIC (Streptococci pneumoniae): 0.02 µg/mL | MIC (Staphylococcus aureus): 0.1 µg/mL | MIC (Haemophilus influenza): 0.25 µg/mL | MIC (Enterococcus faecalis): 0.5 µg/mL
